From ChEMBL document CHEMBL4346703, “Structure Overhaul Affords a Potent Purine PI3Kδ Inhibitor with Improved Tolerability” (J Med Chem, 2019)

Tests used:
[1] = Plasma clearance in Beagle dog at 0.25 mg/kg, iv or 0.5 mg/kg, po; format: ADME, organism-based, Canis lupus familiaris
[2] = molecular target: PI3-kinase p110-alpha/p85-alpha (Homo sapiens, UniProt P42336); assay: Inhibition of N-terminal His6-tagged recombinant full length human p110alpha/untagged recombinant full length human p85alpha expressed in baculovirus infected Sf21 insect cells using PIP2 as substrate preincubated for 15 mins followed by substrate addition and measured after 1 hr by HTRF assay
[3] = molecular target: PI3-kinase p110-delta/p85-alpha (Homo sapiens, UniProt O00329); assay: Inhibition of N-terminal His6-tagged recombinant full length human p110delta/untagged recombinant full length human p85alpha expressed in baculovirus infected Sf21 insect cells using PIP2 as substrate preincubated for 15 mins followed by substrate addition and measured after 1 hr by HTRF assay
[4] = molecular target: T1, Phosphatidylinositol 4,5-bisphosphate 3-kinase catalytic subunit delta isoform (Homo sapiens, UniProt O00329); assay: Inhibition of PI3Kdelta in human Ramos cells assessed as reduction in anti-IgM-antibody-induced phosphorylation of AKT at Ser473 residue preincubated for 20 mins followed by anti-IgM antibody stimulation and measured after 30 mins by alphascreen assay; format: cell-based
T1 sequence (O00329 whole entry): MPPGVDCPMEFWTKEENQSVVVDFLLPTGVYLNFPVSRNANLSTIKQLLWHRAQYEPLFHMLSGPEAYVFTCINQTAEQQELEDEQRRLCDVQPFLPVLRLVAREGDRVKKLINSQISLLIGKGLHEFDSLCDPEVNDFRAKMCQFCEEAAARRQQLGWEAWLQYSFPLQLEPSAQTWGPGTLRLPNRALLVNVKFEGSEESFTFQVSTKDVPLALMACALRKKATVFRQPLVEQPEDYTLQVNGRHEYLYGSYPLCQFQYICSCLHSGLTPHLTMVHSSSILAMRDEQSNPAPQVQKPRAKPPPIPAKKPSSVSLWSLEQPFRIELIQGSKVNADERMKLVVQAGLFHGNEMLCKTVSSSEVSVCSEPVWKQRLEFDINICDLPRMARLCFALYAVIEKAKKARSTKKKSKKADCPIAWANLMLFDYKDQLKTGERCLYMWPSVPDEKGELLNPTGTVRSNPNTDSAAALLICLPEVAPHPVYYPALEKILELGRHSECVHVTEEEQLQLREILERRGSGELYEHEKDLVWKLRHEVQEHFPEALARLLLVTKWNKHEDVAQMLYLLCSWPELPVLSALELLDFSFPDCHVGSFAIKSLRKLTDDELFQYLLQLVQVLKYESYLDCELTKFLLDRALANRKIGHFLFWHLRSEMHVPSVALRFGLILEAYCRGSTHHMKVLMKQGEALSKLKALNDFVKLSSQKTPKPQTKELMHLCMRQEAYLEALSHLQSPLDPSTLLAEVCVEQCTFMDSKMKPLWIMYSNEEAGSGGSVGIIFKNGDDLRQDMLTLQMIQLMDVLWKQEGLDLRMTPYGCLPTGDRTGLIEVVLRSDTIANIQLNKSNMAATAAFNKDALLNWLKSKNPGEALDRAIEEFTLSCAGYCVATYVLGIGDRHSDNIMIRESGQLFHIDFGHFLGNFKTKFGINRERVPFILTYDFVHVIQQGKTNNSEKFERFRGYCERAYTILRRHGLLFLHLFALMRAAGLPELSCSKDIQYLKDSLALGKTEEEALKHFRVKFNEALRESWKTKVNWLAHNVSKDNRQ

[5] = Inhibition of adenosine transporter in human HeLa cells assessed as reduction in [3H]adenosine uptake preincubated for 30 mins followed by [3H]adenosine addition and measured after 60 mins; format: ADME, cell-based
[6] = molecular target: T1, Phosphatidylinositol 4,5-bisphosphate 3-kinase catalytic subunit delta isoform; assay: Inhibition of PI3Kdelta in human whole blood assessed as reduction in anti-CD79b antibody-induced CD69 expression preincubated for 60 mins followed by anti-CD79b antibody stimulation and measured after 3 hrs by FACS analysis; format: tissue-based
[7] = molecular target: T1, Phosphatidylinositol 4,5-bisphosphate 3-kinase catalytic subunit delta isoform; assay: Inhibition of PI3Kdelta in human whole blood assessed as reduction in antihuman IgE antibody-stimulated CD63 expression preincubated for 30 mins followed by antihuman IgE antibody stimulation and measured after 20 mins by FACS analysis; format: tissue-based
[8] = molecular target: Phosphodiesterase 1 (Homo sapiens, UniProt P54750+Q01064+Q14123); assay: Inhibition of PDE1 (unknown origin); format: protein assay
[9] = molecular target: cGMP-dependent 3',5'-cyclic phosphodiesterase (Homo sapiens, UniProt O00408); assay: Inhibition of PDE2 (unknown origin)
[10] = molecular target: Phosphodiesterase 3 (Homo sapiens, UniProt Q14432+Q13370); assay: Inhibition of PDE3 (unknown origin); format: protein assay
[11] = molecular target: Phosphodiesterase 4 (Homo sapiens, UniProt P27815+Q08499+Q07343+Q08493); assay: Inhibition of PDE4 (unknown origin); format: protein assay
[12] = molecular target: cAMP and cAMP-inhibited cGMP 3',5'-cyclic phosphodiesterase 10A (Homo sapiens, UniProt Q9Y233); assay: Inhibition of PDE10 (unknown origin)
[13] = Plasma clearance in Wistar Han rat at 0.5 mg/kg, iv or 1 mg/kg, po; format: ADME, organism-based
[14] = Intrinsic clearance in Wistar Han rat at 0.5 mg/kg, iv or 1 mg/kg, po; format: ADME, organism-based; settings: in vivo
[15] = Volume of distribution in Wistar Han rat; format: ADME; settings: in vivo
[16] = Unbound volume of distribution in Wistar Han rat; format: ADME; settings: in vivo
[17] = Half-life in Wistar Han rat; format: ADME; settings: in vivo
[18] = Oral bioavailability in Wistar Han rat; format: ADME, organism-based; settings: in vivo
[19] = Protein binding in Wistar Han rat plasma; format: ADME, cell-free; settings: read-out: PPB (converted)
[20] = Volume of distribution in Beagle dog; format: ADME, Canis lupus familiaris; settings: in vivo
[21] = Unbound volume of distribution in Beagle dog; format: ADME, Canis lupus familiaris; settings: in vivo
[22] = Half-life in Beagle dog; format: ADME, Canis lupus familiaris; settings: in vivo
[23] = Oral bioavailability in Beagle dog; format: ADME, organism-based, Canis lupus familiaris; settings: in vivo
[24] = Protein binding in Beagle dog plasma; format: ADME, cell-free, Canis lupus familiaris; settings: read-out: PPB (converted)
[25] = Protein binding in human plasma; format: ADME, cell-free; settings: read-out: PPB (converted)
[26] = Toxicity in rat assessed as increase in blood pressure at 750 mg/kg/day; format: organism-based; settings: in vivo
[27] = Toxicity in rat assessed as increase in heart rate at 750 mg/kg/day; format: organism-based; settings: in vivo
[28] = fAUC in rat at 750 mg/kg/day; format: ADME, organism-based; settings: in vivo
[29] = fCmax in rat at 750 mg/kg/day; format: ADME, organism-based; settings: in vivo
[30] = fAUC in Beagle dog at 30 mg/kg; format: ADME, organism-based, Canis lupus familiaris; settings: in vivo
[31] = fCmax in Beagle dog at 30 mg/kg; format: ADME, organism-based, Canis lupus familiaris; settings: in vivo
[32] = Lipophilicity, log D of the compound; format: physicochemical; settings: octanol/water
[33] = Stability in rat microsomes in the presence of NADPH; format: ADME, Microsome
[34] = Stability in human microsomes in the presence of NADPH; format: ADME, Microsome
[35] = Drug metabolism in dog microsomes assessed as oxidation of imidazopyridinone metabolite; format: ADME, Canis lupus familiaris, Microsome
[36] = molecular target: T2, Nuclear receptor subfamily 1 group I member 2 (Homo sapiens, UniProt O75469); assay: Activation of PXR (unknown origin); format: ADME
T2 sequence (O75469 whole entry): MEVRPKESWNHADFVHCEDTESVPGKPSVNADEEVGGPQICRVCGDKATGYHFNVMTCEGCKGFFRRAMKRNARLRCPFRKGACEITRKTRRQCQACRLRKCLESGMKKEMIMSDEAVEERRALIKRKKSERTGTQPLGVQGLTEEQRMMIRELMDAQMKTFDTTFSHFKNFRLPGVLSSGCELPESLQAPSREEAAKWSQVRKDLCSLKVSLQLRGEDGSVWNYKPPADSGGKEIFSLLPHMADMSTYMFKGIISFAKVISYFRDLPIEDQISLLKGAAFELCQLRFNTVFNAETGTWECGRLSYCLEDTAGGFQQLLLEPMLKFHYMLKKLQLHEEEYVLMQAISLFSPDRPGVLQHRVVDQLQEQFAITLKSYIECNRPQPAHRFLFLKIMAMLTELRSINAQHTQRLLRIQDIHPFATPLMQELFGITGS

[37] = Drug metabolism in dog microsomes assessed as N-dealkylation of pyrazole metabolite; format: ADME, Canis lupus familiaris, Microsome
[38] = Toxicity in Beagle dogs assessed as medial necrosis of the arteries by measuring disruption of tunica media by hemorrhage at 30 mg/kg; format: organism-based, Canis lupus familiaris; settings: dog, in vivo
[39] = Toxicity in Beagle dogs assessed as medial necrosis of the arteries by measuring disruption of tunica media by fibrin at 30 mg/kg; format: organism-based, Canis lupus familiaris; settings: dog, in vivo
[40] = Toxicity in Beagle dogs assessed as medial necrosis of the arteries by measuring disruption of tunica media by cellular debris at 30 mg/kg; format: organism-based, Canis lupus familiaris; settings: dog, in vivo

cGMP-dependent 3',5'-cyclic phosphodiesterase, sequence (O00408 whole entry): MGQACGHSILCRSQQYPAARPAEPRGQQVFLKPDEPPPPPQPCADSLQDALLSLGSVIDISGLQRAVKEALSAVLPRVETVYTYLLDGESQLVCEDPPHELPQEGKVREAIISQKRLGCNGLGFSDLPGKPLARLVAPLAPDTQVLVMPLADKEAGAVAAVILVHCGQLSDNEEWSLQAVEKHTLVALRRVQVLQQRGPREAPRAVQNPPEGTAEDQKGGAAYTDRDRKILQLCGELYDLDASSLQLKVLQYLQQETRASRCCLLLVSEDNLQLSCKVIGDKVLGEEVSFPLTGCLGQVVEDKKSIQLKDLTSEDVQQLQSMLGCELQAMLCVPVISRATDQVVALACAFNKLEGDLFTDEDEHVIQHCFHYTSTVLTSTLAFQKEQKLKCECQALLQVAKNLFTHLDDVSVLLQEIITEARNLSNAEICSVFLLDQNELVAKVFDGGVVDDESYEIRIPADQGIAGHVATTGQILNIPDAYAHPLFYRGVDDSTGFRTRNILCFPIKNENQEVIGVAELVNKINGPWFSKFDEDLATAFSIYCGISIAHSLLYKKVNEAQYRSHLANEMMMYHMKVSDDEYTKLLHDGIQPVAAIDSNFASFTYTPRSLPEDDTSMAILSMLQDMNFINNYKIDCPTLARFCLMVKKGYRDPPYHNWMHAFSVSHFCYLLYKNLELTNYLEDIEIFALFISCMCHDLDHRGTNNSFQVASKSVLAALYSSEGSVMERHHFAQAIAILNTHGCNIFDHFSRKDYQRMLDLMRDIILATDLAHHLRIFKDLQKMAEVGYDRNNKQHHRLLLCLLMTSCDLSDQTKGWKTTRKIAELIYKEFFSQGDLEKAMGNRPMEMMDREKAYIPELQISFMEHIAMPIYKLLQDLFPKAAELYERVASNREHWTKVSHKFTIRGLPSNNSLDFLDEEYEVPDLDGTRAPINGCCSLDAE
PI3-kinase p110-delta/p85-alpha, sequence (P27986 whole entry, one chain of several, canonical isoform): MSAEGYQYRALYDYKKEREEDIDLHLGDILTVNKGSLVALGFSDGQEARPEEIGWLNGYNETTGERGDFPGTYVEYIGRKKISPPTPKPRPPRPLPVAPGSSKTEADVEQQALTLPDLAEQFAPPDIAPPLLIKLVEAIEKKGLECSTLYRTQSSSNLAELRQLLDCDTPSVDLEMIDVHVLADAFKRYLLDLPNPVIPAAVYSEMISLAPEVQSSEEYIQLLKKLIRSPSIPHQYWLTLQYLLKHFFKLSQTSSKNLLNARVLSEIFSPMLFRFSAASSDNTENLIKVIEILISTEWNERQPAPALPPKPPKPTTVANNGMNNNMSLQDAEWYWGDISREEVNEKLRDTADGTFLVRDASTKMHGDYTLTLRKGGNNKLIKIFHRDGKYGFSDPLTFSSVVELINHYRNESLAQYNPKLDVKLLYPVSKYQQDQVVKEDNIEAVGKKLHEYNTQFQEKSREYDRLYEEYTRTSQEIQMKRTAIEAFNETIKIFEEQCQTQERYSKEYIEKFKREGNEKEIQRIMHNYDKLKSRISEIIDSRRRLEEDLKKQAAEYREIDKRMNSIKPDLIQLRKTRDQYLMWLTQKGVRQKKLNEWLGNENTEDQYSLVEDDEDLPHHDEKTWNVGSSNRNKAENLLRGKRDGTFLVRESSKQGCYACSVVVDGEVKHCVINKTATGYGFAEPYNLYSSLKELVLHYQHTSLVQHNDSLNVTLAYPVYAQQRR
PI3-kinase p110-alpha/p85-alpha, sequence (P27986 whole entry): as the sequence (P27986 whole entry, one chain of several, canonical isoform) above
PI3-kinase p110-alpha/p85-alpha, sequence (P42336 whole entry): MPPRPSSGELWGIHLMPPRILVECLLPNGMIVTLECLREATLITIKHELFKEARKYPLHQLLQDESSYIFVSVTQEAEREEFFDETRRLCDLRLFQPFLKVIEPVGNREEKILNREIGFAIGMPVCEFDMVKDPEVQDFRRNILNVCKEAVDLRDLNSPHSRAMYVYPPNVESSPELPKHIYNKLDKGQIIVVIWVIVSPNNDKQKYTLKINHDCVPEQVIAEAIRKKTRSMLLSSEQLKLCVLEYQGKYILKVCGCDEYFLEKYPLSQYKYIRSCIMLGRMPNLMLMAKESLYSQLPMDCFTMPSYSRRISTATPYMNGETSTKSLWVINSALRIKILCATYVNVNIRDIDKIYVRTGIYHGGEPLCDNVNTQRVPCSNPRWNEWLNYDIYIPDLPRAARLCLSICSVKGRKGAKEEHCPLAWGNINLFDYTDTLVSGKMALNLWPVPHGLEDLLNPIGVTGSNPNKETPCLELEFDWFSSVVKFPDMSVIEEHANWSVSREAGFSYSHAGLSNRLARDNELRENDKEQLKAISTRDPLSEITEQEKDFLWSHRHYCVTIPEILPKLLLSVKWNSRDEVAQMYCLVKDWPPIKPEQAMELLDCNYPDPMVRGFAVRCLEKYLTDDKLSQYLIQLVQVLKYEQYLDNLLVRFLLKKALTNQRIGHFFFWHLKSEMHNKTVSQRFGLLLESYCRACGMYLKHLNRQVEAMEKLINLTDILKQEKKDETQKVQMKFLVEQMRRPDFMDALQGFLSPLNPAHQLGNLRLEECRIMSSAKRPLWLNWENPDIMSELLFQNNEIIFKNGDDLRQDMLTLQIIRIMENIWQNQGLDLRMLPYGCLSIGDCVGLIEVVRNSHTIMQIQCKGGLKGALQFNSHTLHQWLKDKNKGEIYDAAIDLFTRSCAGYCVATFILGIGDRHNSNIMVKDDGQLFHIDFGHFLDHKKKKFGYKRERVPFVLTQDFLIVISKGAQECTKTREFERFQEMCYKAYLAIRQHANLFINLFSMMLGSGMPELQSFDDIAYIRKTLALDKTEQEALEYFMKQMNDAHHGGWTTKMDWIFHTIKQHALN
cAMP and cAMP-inhibited cGMP 3',5'-cyclic phosphodiesterase 10A, sequence (Q9Y233 whole entry): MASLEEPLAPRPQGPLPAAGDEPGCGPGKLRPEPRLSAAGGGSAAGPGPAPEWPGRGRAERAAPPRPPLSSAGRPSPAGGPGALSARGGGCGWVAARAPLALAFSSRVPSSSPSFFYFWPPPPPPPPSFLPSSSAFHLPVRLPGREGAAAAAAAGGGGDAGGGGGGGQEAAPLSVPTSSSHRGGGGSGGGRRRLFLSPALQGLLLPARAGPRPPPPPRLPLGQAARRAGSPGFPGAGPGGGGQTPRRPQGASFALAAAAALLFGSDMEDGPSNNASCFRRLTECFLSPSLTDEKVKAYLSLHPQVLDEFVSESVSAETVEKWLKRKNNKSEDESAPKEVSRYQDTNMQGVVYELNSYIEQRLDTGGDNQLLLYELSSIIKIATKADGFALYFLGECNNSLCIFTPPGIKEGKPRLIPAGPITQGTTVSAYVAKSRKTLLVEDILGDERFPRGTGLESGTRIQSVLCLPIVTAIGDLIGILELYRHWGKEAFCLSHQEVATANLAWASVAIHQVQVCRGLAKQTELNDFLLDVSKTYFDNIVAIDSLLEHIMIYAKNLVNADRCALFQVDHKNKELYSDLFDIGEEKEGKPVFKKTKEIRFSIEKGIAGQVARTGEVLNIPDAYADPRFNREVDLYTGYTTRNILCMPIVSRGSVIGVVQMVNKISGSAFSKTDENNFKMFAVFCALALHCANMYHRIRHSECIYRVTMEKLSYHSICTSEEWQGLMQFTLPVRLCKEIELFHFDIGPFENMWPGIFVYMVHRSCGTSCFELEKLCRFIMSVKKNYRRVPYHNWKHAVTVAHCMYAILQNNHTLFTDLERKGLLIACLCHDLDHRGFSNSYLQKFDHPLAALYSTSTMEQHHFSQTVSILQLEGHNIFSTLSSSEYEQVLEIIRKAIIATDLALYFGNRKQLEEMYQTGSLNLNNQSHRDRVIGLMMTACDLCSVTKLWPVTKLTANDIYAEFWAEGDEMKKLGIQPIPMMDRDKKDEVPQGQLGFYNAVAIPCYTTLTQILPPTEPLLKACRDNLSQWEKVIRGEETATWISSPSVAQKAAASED

CCn1ncc(-c2nc3c(N4CCC(n5c(=O)[nH]c6ncccc65)CC4)ncnc3n2C)c1C
clearance [1]: 46 mL/min/kg
IC50 [2]: 450 nM
IC50 [3]: 6.3 nM
IC50 [4]: 63 nM
IC50 [5]: 72 nM
IC50 [6]: 810 nM
IC50 [7]: 790 nM
IC50 [8]: 2350 nM
IC50 [9]: 4900 nM
IC50 [10]: 1030 nM
IC50 [11]: 1190 nM
IC50 [12]: 4010 nM
clearance [13]: 5.8 mL/min/kg
CL [14]: 60 mL/min/kg
Vd [15]: 0.4 L/kg
Vdu [16]: 4 L/kg
half-life [17]: 1.2 h
bioavailability [18]: 76%
fraction unbound [19]: 0.1
Vd [20]: 4.6 L/kg
Vdu [21]: 90 L/kg
half-life [22]: 1.1 h
bioavailability [23]: 61%
fraction unbound [24]: 0.05
fraction unbound [25]: 0.21
Activity [26]: 20 mmHg
Activity [27]: 100 bpm
fAUC [28]: 123 µM·h
fCmax [29]: 8 µM
fAUC [30]: 4.4 µM·h
fCmax [31]: 0.33 µM
logD [32]: 1.4
Stability [33]: Stable
Stability [34]: Stable
Drug metabolism [35]: Metabolite_Detected
Activity [36]: Not Active
Drug metabolism [37]: Metabolite_Detected
Activity [38]: Non-Toxic
Activity [39]: Non-Toxic
Activity [40]: Non-Toxic
